Patent US7241763B2, “3-furanyl analogs of toxoflavine as kinase inhibitors” (priority 2002, dated 2007)
Where two headings read alike, the source gives them in different places.

How the values were obtained:
[1] = target: T1, AKT3 (Homo sapiens, UniProt Q9Y243); assay: In vitro inhibition of AKT3 using a filter assay (AKT3 pep., Ex. C3); assay type: biochemical
Method: In Vitro Inhibition of AKT3 using a Filter Assay
In the present AKT3 filter assay, a kinase substrate consisting of a fragment of histone H2B, is incubated with the aforementioned protein in the presence of (^33P) radiolabeled ATP. The (^33P)phosporylated substrate binds to a phosphocellulose cation exchange filter, that can easily be removed from the incubation mixture and counted using a microplate scintillation counter.
AKT3 filter assays were performed at 25° C. for 3 hrs in the presence of 25 mM Hepes, pH 7.0, containing 15 mM MgCl2, 1 mM DTT Each assay was performed in a 100 μl reaction volume containing 111 nM AKT3 (diluted in 25 mM Hepes, pH 7.0, containing 15 mM MgCl2, 1 mM DTT) and the 2.5 μM Histone H2B and 2 nM ATP-P^32. The reaction was terminated by addition of 100 μl 75 mM H3PO4, 90 μl of the assay mixture was filtered through Phosphocellulose cation exchange paper. After five times washing with […] H3PO4, the filterpaper was counting in a microtiterplate scintillation counter.

[2] = target: T2, CDC25B (Homo sapiens, UniProt P30305); assay: In vitro inhibition of CDC25B using the fluorogenic substrate 3-OMFP (CDC25B WT, Ex. C5); assay type: biochemical
T2 sequence (P30305 1-580): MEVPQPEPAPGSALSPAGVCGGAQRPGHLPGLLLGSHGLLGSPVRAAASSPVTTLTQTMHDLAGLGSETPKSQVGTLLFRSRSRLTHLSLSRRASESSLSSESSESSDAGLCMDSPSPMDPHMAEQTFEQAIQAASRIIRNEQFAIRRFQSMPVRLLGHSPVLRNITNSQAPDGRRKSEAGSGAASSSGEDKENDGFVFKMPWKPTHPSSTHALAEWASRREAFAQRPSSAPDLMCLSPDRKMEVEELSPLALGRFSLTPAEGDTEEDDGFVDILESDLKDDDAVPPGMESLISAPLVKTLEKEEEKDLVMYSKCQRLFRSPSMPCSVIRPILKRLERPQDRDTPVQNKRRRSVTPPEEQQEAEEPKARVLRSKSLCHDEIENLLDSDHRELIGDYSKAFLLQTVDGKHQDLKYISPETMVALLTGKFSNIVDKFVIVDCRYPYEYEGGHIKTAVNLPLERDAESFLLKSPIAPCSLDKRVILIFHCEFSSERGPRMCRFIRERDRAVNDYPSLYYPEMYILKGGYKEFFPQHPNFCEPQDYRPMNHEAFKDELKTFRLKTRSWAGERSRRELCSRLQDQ
Method: In Vitro Inhibition of CDC25B using the Fluorogenic Substrate 3-OMFP
CDC25B phosphatase activity is assessed using the fluorogenic substrate 3-O-methyl-flurorescein-phosphate (3-OMFP). The phosphatase-reaction is performed for 1 hour at room temperature in a black microtiter plate in a volume of 50 μl. The reaction mixture contains 4 μg/mlCDC25B, 15 μM (3-OMFP), 15 mM Tris, 50 mM NaCl, 1 mM DTT, 1 mM Na2EDTA at pH 8.0 and 0.1% DMSO solution at 10^−5 M and the hits are tested in the same conditions in a full dose/response from 10^−5, 3.10^−6, 10^−6 and 3.10^−7 M. The enzymatic activity is determined by measuring the fluorescent signal at 485 nm (ex.) and 538 (em.).

[3] = target: T1, AKT3; assay: Cellular inhibition of AKT3 using an ELISA (AKT cel, Ex. C6); assay type: cell-based; parameters: endogenous in cells; host or cells: MDA-MB 231
Method: Cellular Inhibition of AKT3 using an ELISA
The human breast adenocarcinoma cell line (MDA-MB 231) was used in an phosphospecific antibody cell ELISA (PACE) to assess the inhibitory effect of the compounds on AKT3 mediated phosphorylation of mitogen-activated protein kinase (MAPK). In the experiments the MDA-MB 231 cells were serum starved for 24 hours (5% CO2; 37° C.). Subsequently, the cells are incubated at room temperature for 2 hours with 20 μM (in serum free medium) of the phosphatidylinositol 3-kinase inhibitor Ly294002 (Alexis, San Diego, Calif.) prior to the incubation for 30 minutes with the compounds at a final concentration ranging from 1 nM to 3 μM. After fixation (with 4.5% formaldehyde) for 20 minutes and washing with PBS (0.1M) the cells were successively incubated with for 5 minutes with 0.1% Triton X-100 in PBS, for 20 minutes with 0.6% H2O2 and 1 hour with a 2% BSA solution as blocking buffer. […] The OD (490–655 nm) reflected the amount of phosphorylated MAPK and the pIC50 of the compounds was based on their effect with respect to blanco (0.1% DMSO) or an internal reference compound treatment.

[4] = target: cdk4 (Homo sapiens, UniProt P11802); assay: In vitro inhibition of cdk4 using a scintillant proximity assay (CDK4 SPA, Ex. C1); assay type: biochemical
Sequence of cdk4 (P11802 whole entry): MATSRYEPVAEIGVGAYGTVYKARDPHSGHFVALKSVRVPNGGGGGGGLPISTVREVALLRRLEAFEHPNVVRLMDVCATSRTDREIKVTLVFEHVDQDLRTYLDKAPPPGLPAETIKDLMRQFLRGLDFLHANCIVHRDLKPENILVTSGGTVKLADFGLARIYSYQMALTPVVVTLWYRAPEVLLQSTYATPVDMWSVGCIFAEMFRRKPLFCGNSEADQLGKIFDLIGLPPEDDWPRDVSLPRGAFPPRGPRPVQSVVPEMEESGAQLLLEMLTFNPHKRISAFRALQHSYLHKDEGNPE
Sequence of cdk4 (P24385 whole entry partner): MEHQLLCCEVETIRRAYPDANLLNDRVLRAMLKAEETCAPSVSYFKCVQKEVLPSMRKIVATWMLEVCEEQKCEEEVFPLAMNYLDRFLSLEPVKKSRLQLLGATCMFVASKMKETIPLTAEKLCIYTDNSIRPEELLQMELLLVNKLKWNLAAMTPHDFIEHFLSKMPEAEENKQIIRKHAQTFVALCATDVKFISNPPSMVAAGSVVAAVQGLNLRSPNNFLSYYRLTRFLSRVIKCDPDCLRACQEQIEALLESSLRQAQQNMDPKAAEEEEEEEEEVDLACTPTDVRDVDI
Method: In Vitro Inhibition of cdk4 using a Scintillant Proximity Assay
The scintillant proximity assay (SPA) is in general described in U.S. Pat. No. 4,568,649 (Amersham Pharmacia Biotech). In the present cdk4 SPA kinase reaction assay, a kinase substrate consisting of a fragment of the restinoblastoma protein (pRb) tagged with […] (GST), is incubated with the aforementioned protein in the presence of (^33P) radiolabeled ATP. (^33P) phosporylation of the substrate is subsequently measured as light energy emitted using glutathione-coated SPA beads (Amersham Pharmacia Biotech) by trapping and quantifying the binding of the GST tagged and radiolabeled restinoblastoma protein.
The CDK4 SPA kinase reaction is performed at room temperature for 30 minutes in a 96-well microtiter plate. For each of the tested compounds a full dose response —10^−5M to 3.10^−9M—has been performed. Flavopiridol was used as reference compound. The 100 μl reaction volume contains 50 mM Hepes, 10 mM NaF, 10 mM MgCl2, 1 mM Na3VO4 pH 7.5, 1.5 μg CDK4-cell lysate/well, 0.2 μM unlabeled ATP, 1.7 μg/well GST-pRb, 1.7 nM AT^33P and 1 μl of a DMSO solution. The reaction is stopped by diluting the reaction mixture ½ with 0.1 mM Na2EDTA, 0.1 mM non-labeled ATP, 0.05% Triton-X-100 and 10 mg/ml glutathion coated beads in PBS. The microtiterplates are centrifuges at 900 rpm for 10 minutes and the amount of phosphorylated (^33P) pRb is determined by counting (1 min/well) in a microtiterplate scintillation counter.

[5] = tested on: A2780 cell; assay: Cytotox/survival of A2780 cell after 3 days; assay type: cell-based; settings: Homo sapiens, read-out: Cytotox/survival of A2780 cell after 3 days - pIC50 values (converted)
Method: In an alternative assay, the growth inhibitory effect of the compounds was tested on the ovarian carcinoma cell line A2780 using art known cytotoxicity assays such as LIVE/DEAD (Molecular Probes) or MTT.

[6] = histone H2B substrate, filter assay, 25° C. 3 hrs, read-out: AKT3 pep. (Ex. C3): pIC50 values (converted)
[7] = 3-OMFP substrate, 1 hour room temperature, read-out: CDC25B WT (Ex. C5): pIC50 values (converted)
[8] = MDA-MB 231 cells, phosphorylated MAPK ELISA, 30 minutes with compound, read-out: AKT cel (Ex. C6): pIC50 values (converted)
[9] = GST-pRb substrate, 33P-ATP, room temperature 30 minutes, read-out: CDK4 SPA (Ex. C1): pIC50 values (converted)
[10] = 72 h, A2780 ovarian carcinoma cell line, 3 days

T1 sequence (Q9Y243 whole entry): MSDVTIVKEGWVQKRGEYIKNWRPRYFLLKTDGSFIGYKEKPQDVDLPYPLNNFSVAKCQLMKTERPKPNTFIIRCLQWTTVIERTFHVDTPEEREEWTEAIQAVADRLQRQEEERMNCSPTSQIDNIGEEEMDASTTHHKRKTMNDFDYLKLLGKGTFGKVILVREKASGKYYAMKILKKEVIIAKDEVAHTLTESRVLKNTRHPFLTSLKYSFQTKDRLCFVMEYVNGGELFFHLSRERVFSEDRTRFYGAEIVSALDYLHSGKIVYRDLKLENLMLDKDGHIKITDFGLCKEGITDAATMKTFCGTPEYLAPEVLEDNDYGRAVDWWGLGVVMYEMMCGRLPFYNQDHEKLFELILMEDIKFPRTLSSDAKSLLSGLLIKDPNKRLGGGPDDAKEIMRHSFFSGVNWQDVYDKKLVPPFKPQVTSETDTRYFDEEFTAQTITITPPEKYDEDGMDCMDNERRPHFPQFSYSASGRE

Structure (SMILES) | IC50 [1, 6] | IC50 [2, 7] | IC50 [3, 8] | IC50 [4, 9] | IC50 [5, 10] | melting point | IC50 [1] | IC50 [2] | IC50 [3] | IC50 [4] | IC50 ([5]; A2780, 72 h)
Cn1c(=O)nc2n(C3CCCC3)nc(-c3ccc(-c4ccc(CNC(CO)(CO)CO)cc4)o3)nc-2c1=O [Compound 126] | 80.2 nM | 93.8 nM | 272 nM | 78.3 nM | 1110 nM | 241 °C |  |  |  |  | 
Cn1c(=O)nc2n(C3CCCC3)nc(-c3ccc(-c4ccc(CN5CCCC5)cc4)o3)nc-2c1=O [Compound 131] | 91.4 nM | 18.6 nM | 71.8 nM | 51.9 nM | 61.7 nM | 218 °C |  |  |  |  | 
COC1CCN(Cc2ccc(-c3ccc(-c4nc5c(=O)n(C)c(=O)nc-5n(C5CCCC5)n4)o3)cc2)CC1 [Compound 132] | 47 nM | 20.2 nM | 58.3 nM | 78.5 nM | 87.7 nM | 220 °C |  |  |  |  | 
Cn1c(=O)nc2n(C3CCCC3)nc(-c3ccc(-c4ccc(CO)cc4)o3)nc-2c1=O [Compound 31] | 44.3 nM | 13.8 nM | 277 nM | 137 nM | 74 nM | 182 °C |  |  |  |  | 
Cn1c(=O)nc2n(C3CCCC3)nc(-c3ccc(-c4ccc(CN5CCN(S(N)(=O)=O)CC5)cc4)o3)nc-2c1=O [Compound 112] | 63.7 nM | 19.8 nM | 202 nM | 117 nM | 142 nM | > 250 °C |  |  |  |  | 
Cn1c(=O)nc2n(C3CCCC3)nc(-c3ccc(-c4ccc(OCCN5CCOCC5)cc4)o3)nc-2c1=O [Compound 117] |  |  |  |  |  | 173 °C | 49.4 nM | 18.9 nM | 813 nM | 286 nM | 178 nM
Cn1c(=O)nc2n(C3CCCC3)nc(-c3ccc(-c4ccc(CN(CCO)CCO)cc4)o3)nc-2c1=O [Compound 134] | 59.8 nM | 12.9 nM | 39.2 nM | 111 nM | 52.7 nM | 242 °C |  |  |  |  | 
Cn1c(=O)nc2n(C3CCCC3)nc(-c3ccc(-c4ccc(CN5CCN(CCOCCO)CC5)cc4)o3)nc-2c1=O [Compound 121] | 57.3 nM | 12 nM | 406 nM | 161 nM | 137 nM | > 250 °C |  |  |  |  | 
CC(C)n1nc(-c2ccc(-c3ccc(CN(C)CCO)cc3)o2)nc2c(=O)n(C)c(=O)nc1-2 [Compound 87] | 72.9 nM | 24.3 nM | 35.2 nM | 80.7 nM | 61.4 nM | 229 °C |  |  |  |  | 
